{"source": "patent US5318989A", "about": "“Cytotoxic bicyclo [7.3.1.]tridec-4-ene-2,6-diyne compounds and process for the preparation thereof” (Bristol-Myers Squibb Company, priority 1992, dated 1994)", "key": {"[1]": {"system": "HCT-116 human colon tumor cell line", "assay": "In vitro cytotoxicity assay", "format": "cell-based", "conditions": "three determinations", "method": "(§1) Compound of Example 4 was evaluated in vitro against three human colon tumor cell lines: HCT-116, HCT/VM46, and HCT/VP35; the latter two are resistant to teniposide and etoposide, respectively. The in vitro cytotoxicity assay involved growing tumor cells on microtitre plates employing established tissue culture methods. The concentration of the test compound required to inhibit cell growth by 50% (IC50) was then determined by four-fold serial dilution technique. In the experiment, etoposide and teniposide were included as positive controls."}, "[2]": {"system": "HCT/VM46 human colon tumor cell line (teniposide-resistant)", "assay": "In vitro cytotoxicity assay", "format": "cell-based", "conditions": "three determinations", "method": "as §1"}, "[3]": {"system": "HCT/VP35 human colon tumor cell line (etoposide-resistant)", "assay": "In vitro cytotoxicity assay", "format": "cell-based", "conditions": "three determinations", "method": "as §1"}, "P388 leukemia": {"system": "P388 leukemia", "assay": "In vivo activity against transplantable murine P388 leukemia in CDF1 mice", "conditions": "for Survival d.5: day 5; for Med. Survival Time / % T/C: intraperitoneal; for Med. Survival Time: 5 consecutive days from day 1, control 11 d; for % T/C: 5 consecutive days, 125 or greater is significant", "method": "The compound of Example 4 was also evaluated against transplantable murine P388 leukemia. CDF1 mice were implanted intraperitoneally with a tumor inoculum of 10^6 cells of P388 leukemia and treated with various doses of the test compound Six mice were used for each dose level and 10 mice were treated with saline to serve as control. The test compound was administered intraperitoneally on 5 consecutive days starting on day 1 after tumor implantation. Antitumor activity is expressed as % T/C which is the ratio of mean survival time (MST) for the drug-treated group to the MST of saline-treated control group.\nA compound showing a % T/C of 125 or greater is considered to have significant antitumor activity."}, "DNA": {"system": "DNA", "conditions": "J. Org. Chem. 1989, 54:2781-2783; J. Am. Chem. Soc. 1989, 111:7638-7641; cited from earlier work"}, "[4]": {"conditions": "Homo sapiens, HCT-116, HCT-116, read-out: IC50"}, "[5]": {"conditions": "Homo sapiens, HCT/VP35, HCT/VP35, read-out: IC50"}}, "note": "Values joined by “and” are separate entries in the source; they are usually repeats but may differ in a detail not shown here. Equal values may be shown once. Read-outs that look alike come from different tables or passages of the source.", "data": [{"compound": "COc1cc([C@@H]2c3cc4c(cc3[C@@H](O[C@@H]3O[C@@H]5CO[C@@H](c6cccs6)O[C@H]5[C@H](O)[C@H]3O)[C@H]3COC(=O)[C@H]23)OCO4)cc(OC)c1O", "note": "[Teniposide]", "values": [{"measurement": "IC50", "setting": "[1]; HCT-116", "value": "0.088 µg/mL and 0.083 µg/mL"}, {"measurement": "IC50", "setting": "[1]; [4]", "value": 0.077, "unit": "µg/mL"}, {"measurement": "IC50", "setting": "[2]; Homo sapiens, read-out: IC50", "value": 0.313, "unit": "µg/mL"}, {"measurement": "IC50", "setting": "[2]", "value": "0.237 µg/mL and 0.236 µg/mL"}, {"measurement": "IC50", "setting": "[3]; HCT/VP35", "value": "0.091 µg/mL and 0.111 µg/mL"}, {"measurement": "IC50", "setting": "[3]; [5]", "value": 0.084, "unit": "µg/mL"}]}, {"compound": "COc1cc([C@@H]2c3cc4c(cc3[C@@H](O[C@@H]3O[C@@H]5CO[C@@H](C)O[C@H]5[C@H](O)[C@H]3O)[C@H]3COC(=O)[C@H]23)OCO4)cc(OC)c1O", "note": "[Etoposide]", "values": [{"measurement": "IC50", "setting": "[1]; HCT-116", "value": "0.128 µg/mL and 0.140 µg/mL"}, {"measurement": "IC50", "setting": "[1]; [4]", "value": 0.101, "unit": "µg/mL"}, {"measurement": "IC50", "setting": "[3]; HCT/VP35", "value": "6.29 µg/mL and 6.75 µg/mL"}, {"measurement": "IC50", "setting": "[3]; [5]", "value": 5.14, "unit": "µg/mL"}]}, {"compound": "O=C1C2=CCCC1(O)C#C/C=C\\C#CC2", "note": "(centres unmarked) [Example 15, 1-Hydroxy-bicylco[7.3.1]trideca-4,9-diene-2,6-diyne-13-one]", "values": [{"measurement": "max. %T/C", "setting": "P388 leukemia; at 40 mg/kg/dose, same protocol", "value": 230, "unit": "%"}]}, {"compound": "O=C1CC2C(=O)C(O)(C#CC=CC#CC2O)C1", "note": "(centres unmarked) [1,8-dihydroxy-bicyclo[7.3.1]tridec-4-ene-2,6-diyn-11,13-dione]", "values": [{"measurement": "DNA cleavage in vitro", "setting": "DNA", "value": "shown to cleave DNA in vitro"}]}, {"compound": "1-Hydroxy-8-[[(2-quinoxolyamino)carbonyl]oxy]-bicyclo[7.3.1]trideca-4,7-diene-2,6-divn-13-one [Example 8]", "values": [{"measurement": "max. %T/C", "setting": "P388 leukemia; at 15 mg/kg/dose, same protocol", "value": 145, "unit": "%"}]}, {"compound": "O=C1C2=CCCC1(O)C#CC=CC#CC2O", "note": "(centres unmarked) [Example 4, 1,8-Dihydroxy-bicyclo7.3.1]trideca-4,9-diene-2,6-divn-13-one]", "values": [{"measurement": "IC50", "setting": "[1]; HCT-116", "value": "0.037 µg/mL and 0.043 µg/mL and < 0.031 µg/mL"}, {"measurement": "IC50", "setting": "[2]", "value": "< 0.031 µg/mL and 0.047 µg/mL"}, {"measurement": "IC50", "setting": "[3]; HCT/VP35", "value": "0.042 µg/mL and 0.046 µg/mL and 0.072 µg/mL"}, {"measurement": "Survival d.5", "setting": "P388 leukemia; 1 mg/kg/dose", "value": "6/6"}, {"measurement": "Med. Survival Time", "setting": "P388 leukemia; 1 mg/kg/dose", "value": 13, "unit": "days"}, {"measurement": "% T/C", "setting": "P388 leukemia; 1 mg/kg/dose", "value": 118, "unit": "%"}, {"measurement": "Survival d.5", "setting": "P388 leukemia; 2 mg/kg/dose", "value": "6/6"}, {"measurement": "Med. Survival Time", "setting": "P388 leukemia; 2 mg/kg/dose", "value": 16.5, "unit": "days"}, {"measurement": "% T/C", "setting": "P388 leukemia; 2 mg/kg/dose", "value": 150, "unit": "%"}, {"measurement": "Survival d.5", "setting": "P388 leukemia; 4 mg/kg/dose", "value": "6/6"}, {"measurement": "Med. Survival Time", "setting": "P388 leukemia; 4 mg/kg/dose", "value": 20.0, "unit": "days"}, {"measurement": "% T/C", "setting": "P388 leukemia; 4 mg/kg/dose", "value": 182, "unit": "%"}, {"measurement": "Survival d.5", "setting": "P388 leukemia; 8 mg/kg/dose", "value": "6/6"}, {"measurement": "number of surviving mice on day 39", "setting": "P388 leukemia; 8 mg/kg/dose, day 39", "value": 4, "unit": "mice"}, {"measurement": "Med. Survival Time", "setting": "P388 leukemia; 8 mg/kg/dose", "value": "> 39", "unit": "days"}, {"measurement": "% T/C", "setting": "P388 leukemia; 8 mg/kg/dose", "value": "> 355", "unit": "%"}, {"measurement": "Survival d.5", "setting": "P388 leukemia; 16 mg/kg/dose", "value": "6/6"}, {"measurement": "Med. Survival Time", "setting": "P388 leukemia; 16 mg/kg/dose", "value": 9.5, "unit": "days"}, {"measurement": "% T/C", "setting": "P388 leukemia; 16 mg/kg/dose", "value": 86, "unit": "%"}, {"measurement": "Survival d.5", "setting": "P388 leukemia; 32 mg/kg/dose", "value": "6/6"}, {"measurement": "Med. Survival Time", "setting": "P388 leukemia; 32 mg/kg/dose", "value": 7, "unit": "days"}, {"measurement": "% T/C", "setting": "P388 leukemia; 32 mg/kg/dose", "value": 64, "unit": "%"}, {"measurement": "activity against P388 leukemia", "setting": "P388 leukemia; conclusion from Table II", "value": "high activity against P388 leukemia"}]}, {"compound": "O=C(OC1C#CC=CC#CC2(O)CCC=C1C2=O)c1cnc2ccccc2n1", "note": "(centres unmarked) [Example 6]", "values": [{"measurement": "mouse surviving on day 31", "setting": "P388 leukemia; 20 mg/kg/dose, day 31", "value": "one"}, {"measurement": "maximum %T/C", "setting": "P388 leukemia; at 20 mg/kg/dose, same protocol", "value": 235, "unit": "%"}]}]}
